Measurements as given in the supplement of paper PMC10307832.

Columns and labels:
Experiment in all cases: relative viability (nuclei count vs DMSO), 5 days (fraction); higher = more cells survive
[1] = compound: Cc1ccc2nc(NCCN)c3ncc(C)n3c2c1 + Cc1nc(Nc2ncc(C(=O)Nc3c(C)cccc3Cl)s2)cc(N2CCN(CCO)CC2)n1 [Dasatinib] (partner 0.075 µM)
How it was run: (§1)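 One day after seeding in 1536-well plates, lung cancer cell lines were dosed by pin tool. Dosing was either single-drug or a fixed anchor-drug dose plus five library-drug doses (not always all listed) in √10 steps. After 5 days, nuclei were stained in one fix-and-stain step and counted on 4× images, and relative viability is the nuclei count of treated wells over that of vehicle wells, given as the median of duplicate plates.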

[2] = compound: O=C(/C=C/c1ccccc1)NC(NC(=S)Nc1cccc2cccnc12)C(Cl)(Cl)Cl [Salubrinal] + CC(C)C[C@H](NC(=O)[C@H](Cc1ccccc1)NC(=O)c1cnccn1)B(O)O [Bortezomib] (partner 0.002 µM)
How it was run: as §1

[3] = compound: O=C(/C=C/c1ccccc1)NC(NC(=S)Nc1cccc2cccnc12)C(Cl)(Cl)Cl [Salubrinal] + Cc1cc(Nc2cc(N3CCN(C)CC3)nc(Sc3ccc(NC(=O)C4CC4)cc3)n2)n[nH]1 [Tozasertib] (partner 0.1 µM)
How it was run: as §1

[4] = compound: O=C(/C=C/c1ccccc1)NC(NC(=S)Nc1cccc2cccnc12)C(Cl)(Cl)Cl [Salubrinal] + Nc1nc2[nH]cc(CCc3ccc(C(=O)N[C@@H](CCC(=O)O)C(=O)O)cc3)c2c(=O)[nH]1 [Pemetrexed] (partner 0.2 µM)
How it was run: as §1

| Cell Line | relative viability ([1]; first compound 0.04 µM) | relative viability ([1]; first compound 0.1265 µM) | relative viability ([1]; first compound 0.4 µM) | relative viability ([1]; first compound 1.265 µM) | relative viability ([1]; first compound 4 µM) | relative viability ([2]; first compound 0.08 µM) | relative viability ([2]; first compound 0.253 µM) | relative viability ([2]; first compound 0.8 µM) | relative viability ([2]; first compound 2.53 µM) | relative viability ([2]; first compound 8 µM) | relative viability ([3]; first compound 0.08 µM) | relative viability ([3]; first compound 0.253 µM) | relative viability ([3]; first compound 0.8 µM) | relative viability ([3]; first compound 2.53 µM) | relative viability ([3]; first compound 8 µM) | relative viability ([4]; first compound 0.08 µM) | relative viability ([4]; first compound 0.253 µM) | relative viability ([4]; first compound 0.8 µM) | relative viability ([4]; first compound 2.53 µM) | relative viability ([4]; first compound 8 µM) |
| --- | --- | --- | --- | --- | --- | --- | --- | --- | --- | --- | --- | --- | --- | --- | --- | --- | --- | --- | --- | --- |
| NCI-H2085 | 0.207 | 0.263 | 0.222 | 0.196 | 0.243 | 1.07 | 0.877 | 1.04 | 1.03 | 1.05 | 0.96 | 0.776 | 0.854 | 0.588 | 0.77 | 1.03 | 0.88 | 0.923 | 0.941 | 0.867 |
| NCI-H2087 | 0.893 | 0.85 | 0.767 | 0.87 | 0.791 | 0.755 | 0.458 | 0.855 | 0.809 | 0.989 | 0.299 | 0.212 | 0.295 | 0.229 | 0.195 | 0.649 | 0.532 | 0.699 | 0.644 | 0.63 |
| NCI-H2126 | 0.663 | 0.696 | 0.592 | 0.549 | 0.493 | 1.11 | 1.02 | 1.21 | 1.22 | 1.07 | 0.979 | 0.801 | 0.968 | 0.827 | 0.666 | 0.676 | 0.683 | 0.747 | 0.708 | 0.626 |
| NCI-H2228 | 0.496 | 0.456 | 0.455 | 0.505 | 0.377 | 1.08 | 1.18 | 1.26 | 0.983 | 0.876 | 0.268 | 0.304 | 0.283 | 0.222 | 0.197 | 0.334 | – | 0.404 | 0.326 | 0.277 |
| NCI-H2347 | 0.32 | 0.333 | 0.355 | 0.266 | 0.317 | 1.05 | 1.04 | 0.998 | 1.17 | 1.04 | 0.619 | 0.543 | 0.617 | 0.51 | 0.568 | 0.43 | 0.43 | 0.423 | 0.452 | 0.529 |
| NCI-H2405 | 0.204 | 0.192 | 0.188 | 0.185 | 0.208 | 1.11 | 0.963 | 1.02 | 1.04 | 1.05 | 0.722 | 0.748 | 0.801 | 0.713 | 0.696 | 1.01 | 1.16 | 1.17 | 1.05 | 1.07 |
| NCI-H3122 | 0.78 | 0.901 | 0.707 | 1.02 | 0.869 | 1 | 1.01 | 0.927 | 0.98 | 0.991 | 0.416 | 0.387 | 0.591 | 0.387 | 0.428 | 0.198 | 0.181 | 0.204 | 0.198 | 0.195 |
| PC-3 [JPC-3] | 1.11 | 0.995 | 0.857 | 1.01 | 0.932 | 0.775 | 0.718 | 0.89 | 0.863 | 0.75 | 1.12 | 0.649 | 0.857 | 0.896 | 0.831 | 0.879 | 0.919 | 1.49 | 1.02 | 1.04 |
| PC-14 | 0.285 | 0.276 | 0.299 | 0.206 | 0.0944 | 0.94 | 0.639 | 0.979 | 1 | 0.874 | 0.629 | 0.663 | 0.638 | 0.525 | 0.601 | 0.114 | 0.154 | 0.147 | 0.124 | 0.108 |
| RERF-LC-KJ | 0.873 | 0.698 | 0.757 | 0.748 | 0.503 | 1.29 | 0.984 | 1.24 | 1.03 | 1.15 | 0.584 | 0.433 | 0.513 | 0.435 | 0.285 | 0.458 | 0.496 | 0.501 | 0.446 | 0.415 |
| SK-LU-1 | 0.162 | 0.202 | 0.181 | 0.166 | 0.167 | 1 | 1.07 | 1.63 | 1.21 | 0.941 | 0.334 | 0.326 | 0.344 | 0.287 | 0.286 | 0.994 | 0.721 | 1.02 | 0.886 | 0.94 |
| SW 1573 | 0.576 | 0.534 | 0.468 | 0.48 | 0.244 | 1.36 | 0.779 | 1.27 | 0.834 | 0.982 | 0.176 | 0.172 | 0.155 | 0.194 | 0.151 | 0.952 | 0.586 | 0.941 | 0.69 | 0.742 |
